Test results: patent US20070232677A1, “Treatment and prevention of vascular hyperplasia using polyamine and polyamine analog compounds” (priority 2006, published 2007)
Entries after “also recorded” stand apart in the source; their conditions may differ.

Key:
[1] = system: baboon vascular grafts (graft intimal hyperplasia); experiment: Inhibition of graft intimal hyperplasia by polyamine infusion, baboon aortoiliac bypass graft model; type: in vivo; design: thickness of grafts, Left Proximal Ave. / thickness of grafts, Left Distal Ave. (Treated site): unit not given here; conditions: for thickness of grafts, Left Distal Ave. (Treated site): left distal anastomosis infused with polyamine; for thickness of grafts, Left Distal Ave. (Treated site) / thickness of grafts, Left Proximal Ave.: pump 2.5 ul/hr for 28 days, one animal per line; for thickness of grafts, Left Proximal Ave.: polyamine-infused left graft, proximal anastomosis upstream of polyamine administration
Description: The procedure of Chen et al., Journal of Vascular Surgery 31(2):354 (2000) was used to prepare the animals. Briefly, baboons underwent bilateral aortoiliac bypass grafting with expanded polytetrafluoroethylene grafts. The distal anastomosis of one graft (the left graft) was infused with polyamine; the distal anastomosis of the contralateral graft (right graft) was infused with placebo (saline). The drugs were infused with the Alzet 2ML4 pump at a flow rate of 2.5 ul/hr for 28 days. For administration of CGC-11093, the pump contained 4.4 mg/ml (10 mM) drug and delivered 266 ug/day (7.5 mg in 28 days). For administration of CGC-11159, drug concentration was also at 10 mM; the pump delivered 646.2 ug/day (18.1 mg in 28 days). After 28 days the grafted vessels were harvested and analyzed. All anastomosis/graft samples were harvested by in vivo pressure-perfusion fixation with 10% Neutral Buffered Formalin (NBF) and fixed further overnight in 10% NBF. Samples were cut into several sections (noting proximal and distal) and marked with green dye for standard overnight processing. Processed samples were embedded in paraffin sectioned at […] intervals and stained with conventional hematoxylin and eosin (H&E). For morphometric measurements and analysis, H&E sections were imaged with a Nikon EFD-3 microscope with darkfield and polarized light epiluminescence and an RT Slider Diagnostic Camera. Graft and vessel sections were analyzed with respect to total neointimal area and maximal thickness. Morphometric analysis was performed using Image-Pro Plus 4.5 (Media Cybernetics) software. All images were digitized and archived.

[2] = system: pig femoral AV grafts (graft vein anastomosis/proximal vein, venous neointimal hyperplasia); experiment: Histopathology of PTA-injured porcine arteriovenous (AV) grafts with perivascular drug infusion; type: in vivo; conditions: for decrease in luminal stenosis versus placebo: perivascular injections, summary of results, dose not given
Description: This example was performed to determine the effect of injections of CGC-11093 and CGC-11159 on the vasculature of pigs following arteriovenous grafting. The histopathology of reactive and inflammatory responses of pig femoral AV grafts 14 days after Mercator Microsyringe infusion with 1 mg CGC-11093 (6 sites), 10 mg CGC-11093 (2 sites), 10 mg CGC-11159 (8 sites), or placebo saline injection (8 sites) in conjunction with percutaneous transluminal angioplasty (PTA) of the graft vein anastomosis and the proximal vein was assessed.
The methods used were as follows: all graft-vein anastomosis/proximal vein (GVA/PV) sites were subjected to angioplasty and perivascular injection via Mercator Microsyringe. Angioplasty was performed and drugs were infused 14 days after graft implant; animals were sacrificed 14 days later for histopathological examination. A total of 24 GVA/PV sites were evaluated. Six sites received 1 mg of CGC-11093; two sites received 10 mg CGC-11093, eight sites received 10 mg of CGC-11159, and eight sites received placebo injection with saline. All injections were performed in conjunction with percutaneous transluminal angioplasty (PTA) of the GVA and PV.
After 14 days, the graft vein anastomosis sites (GVA/PV) were excised en bloc and perfused with formalin. Sectioning of the graft vein anastomosis was performed as follows: briefly, tissue sections were taken at approximately 5 mm intervals through the proximal vein (PV). Tissue sections were taken at approximately 3 mm intervals through the graft-vein anastomosis (GVA) site. Sections were taken at approximately […] intervals through the distal vein (DV). All tissues were routinely processed, embedded in paraffin, sectioned at 5 microns and stained with hematoxylin and eosin for histopathologic evaluation. Numerous histologic sections through each PV, DV and GVA were evaluated. Each section was labeled with the letter P, G, or D (P=proximal vein, G=graft vein anastomosis, and D=Distal vein) and with a corresponding number to indicate proximity to the graft vein anastomosis.
The histopathologic evaluation included a general description of relevant features regardirig tissue reaction and inflammation around the graft vein anastomosis (GVA) and through the proximal femoral vein (PV). Histopathologic features including inflammation, fibrosis, angiogenesis and venous neointimal hyperplasia (VNH) within the GVA and PV were assessed. Attempts were made to differentiate between histopathologic changes attributed to the surgical procedure, secondary affects of GVA, angioplasty and perivascular injection of drug via Mercator Microsyringe.
Initial histopathologic evaluation was performed on all tissues to define the common inflammatory and reactive changes in all specimens. An overall general description of changes in sections of PV and GVA was made. An estimate of the percent occlusion of the most severely affected segment in both the PV and GVA was made. Two precise, perpendicular cross sectional measurements of the lumen were made in the most severely affected section of the PV. In the GVA a single luminal diameter was measured in the most severely affected section. Next, a qualitative assessment of overall severity of VNH, as well as inflammation within the VNH and degree of angiogenesis within the VNH was made for both the PV and the GVA. Additionally, a general description of the overall perivascular tissue reaction around the PV and the GVA was recorded. Lastly, unique, and potentially significant, pathologic features were documented. Unique pathologic features generally included interpretation of the overall severity of the changes, presence or absence of an inflamed seroma, or presence of thrombosis or infection in the GVA or PV. When assessing the degree or severity of a certain histopathologic change (i.e. severity of VNH, etc) a qualitative scoring method was used. A score of 0=absent, 1=minimal, 2=mild, 3=moderate, 4=severe.

CCCCCNCCCCNCC1CC1CNCCCCNCC (racemic) [CGC-11302, N-{2-[(4-Ethylamino-butylamino)-methyl]-cyclopropylmethyl}-N′-pentyl-butane-1,4-diamine]
thickness of grafts, Left Distal Ave. (Treated site) [1]: 0.822 | thickness of grafts, Left Proximal Ave. [1]: 1.047

CCNCCCCNCC1CC1CNCCCCNCC (stereo not shown) [CGC-11093]
degree of VNH angiogenesis, summary ([2]; 1 mg): minimal to absent VNH angiogenesis | histopathologic features/changes, summary ([2]; 1 mg): fewer significant or potentially deleterious histopathologic features; also recorded: less severe histopathologic changes | severity of VNH inflammation, summary ([2]; 1 mg): minimal VNH inflammation | severity of overall VNH in PV and GVA, summary ([2]; 1 mg): minimal amount of VNH in both the PV and GVA | vascular occlusion, summary ([2]; 1 mg, compared with other animals in the study): less severe vascular occlusion than other animals in the study | decrease in luminal stenosis versus placebo [2]: 49.2% | thickness of grafts, Left Distal Ave. (Treated site) [1]: 1.072 | thickness of grafts, Left Proximal Ave. [1]: 0.499

CCNCCCCNCC1CC1CNCCCCNCC (stereo not shown) [CGC-11098]
thickness of grafts, Left Distal Ave. (Treated site) [1]: 1.778 | thickness of grafts, Left Proximal Ave. [1]: 0.938

CCNCCCCNCCCCNCCCCNCCCCNCCCCNCCCCNCCCCNCCCCNCCCCNCC [CGC-11159, CH3CH2—NH—(CH2CH2CH2CH2—NH—)9—CH2CH3]
degree of VNH angiogenesis in PV and GVA, summary ([2]; 10 mg): greater degree of VNH angiogenesis in the PV and GVA | incidence of GVA/PV thrombosis ([2]; 10 mg): higher incidence of GVA/PV thrombosis | luminal diameter of PV, summary ([2]; 10 mg): more likely to have a smaller luminal diameter | perivascular tissue reaction (inflammation around the graft) ([2]; 10 mg): prominent, nodular lymphofollicular inflammation forming a rim surrounding the outside surface of the graft; also recorded: prominent, nodular to coalescing lymphocytic inflammation around the implanted graft material; also recorded: more prominent abnormal perivascular tissue reactions | severity of overall VNH in PV and GVA, summary ([2]; 10 mg): more severe VNH in both the PV and GVA | unique histopathologic features, summary ([2]; 10 mg): often developed luminal thrombosis of both the PV and GVA as well as prominent lymphofollicular inflammation surrounding the graft material | sites that developed fibrin thrombosis within the graft, with some degree of vascular and/or graft occlusion ([2]; 10 mg, eight sites treated): five of eight | luminal occlusion or stenosis of the PV and GVA, summary ([2]; 10 mg, most animals, generally associated with thrombosis of the graft): more severe luminal occlusion or stenosis of the PV and GVA | severity of VNH inflammation, summary ([2]; 10 mg, probably associated with thrombus formation): greater severity of VNH inflammation | decrease in luminal stenosis versus placebo [2]: 22.6% | decrease in average maximal thickness of hyperplasia in the vascular graft ([1]; left distal anastomosis compared with placebo-treated grafts (right proximal and distal anastomoses), 10 mM, 646.2 ug/day for 28 days): ~50% | thickness of grafts, Left Distal Ave. (Treated site) [1]: 0.336 | thickness of grafts, Left Proximal Ave. [1]: 0.695
